Reference: patent US7160901B2, “Substituted indolinones, preparation thereof and their use as pharmaceutical compositions” (Boehringer Ingelheim Pharma GmbH & Co. KG, priority 2000, dated 2007)

How the values were obtained:
[1] = test system: Leiomyosarcoma tumour cell line SK-UT-1B; assay: Test 1: inhibition of the proliferation of cultivated human tumour cells (14C-thymidine incorporation), SK-UT-1B; assay type: cell-based; settings: Homo sapiens, Skut1B; in vitro Test 1; SK-UT-1B cells; 48 hours' incubation, then 14C-thymidine for a further 24 hours; IC50 of inhibition of incorporated 14C-thymidine; read-out: Inhibition of SKUT-1B proliferation
Text: Inhibition of the Proliferation of Cultivated Human Tumour Cells
Cells of the Leiomyosarcoma tumour cell line SK-UT-1B or non-small-cell lung tumour cell line NCI-H460 (obtained from the American Type Culture Collection (ATCC)) were cultivated in Minimum Essential Medium with non-essential amino acids (Gibco), supplemented with sodium pyruvate (1 mMol), glutamine (2 mMol) and 10% foetal calf serum (Gibco) or RPMI1640 Medium (Gibco) and 10% foetal calf serum (Gibco) and harvested in the logarithmic growth phase. Then the SK-UT-1B cells were placed in Cytostar® multi-well plates (Amersham) at a density of 4000 cells per well or 3000 cells per well for NCI-H460 cells and incubated overnight in an incubator. Various concentrations of the compounds (dissolved in DMSO; final concentration: 0.1%) were added to the cells. After 48 hours' incubation, ^14C-thymidine (Amersham) was added to each well and incubation was continued for a further 24 hours. The quantity of ^14C-thymidine which was incorporated into the tumour cells in the presence of the inhibitor and which represents the number of cells in the S phase was measured in a Wallace 1450 Microbeta Liquid Scintillation Counter. IC50 values for the inhibition of the proliferation (=inhibition of incorporated ^14C-thymidine) were calculated, correcting for the background radiation. All the measurements were done twice.
The following Table contains the results obtained with the in vitro Test 1 (++ denotes <0.01 μM, + denotes 0.01–1.0 μM): […]

Compound	melting point [°C]	IC50 [1] [nM]
CC(=O)N(CCN)c1ccc(N/C(=C2\C(=O)Nc3ccc(NS(=O)(=O)c4ccccc4)cc32)c2ccccc2)cc1 [Example 1, (Z)-3-{1-[4-(N-acetyl-N-(2-aminoethyl)-amino)-phenylamino]-1-phenyl-methylidene}-5-phenylsulphonylamino-2-indolinone]	216	
CS(=O)(=O)Nc1ccc2c(c1)/C(=C(/Nc1ccc(CN3CCCCC3)cc1)c1ccccc1)C(=O)N2 [Example 98, (Z)-3-[1-(4-piperidinomethyl-phenylamino)-1-phenyl-methylidene]-5-methylsulphonylamino-2-indolinone]	266	10 to 1000
CS(=O)(=O)Nc1ccc2c(c1)/C(=C(/Nc1ccc(CN3CCCC3)cc1)c1ccccc1)C(=O)N2 [Example 145, (Z)-3-{1-[4-(pyrrolidin-1-ylmethyl)-phenylamino]-1-phenyl-methylidene}-5-methylsulphonylamino-2-indolinone]		10 to 1000
CCOC(=O)Cc1ccc(N/C(=C2\C(=O)Nc3ccc(NS(=O)(=O)c4ccccc4)cc32)c2ccccc2)cc1 [Example 152, (Z)-3-[1-(4-ethoxycarbonylmethyl-phenylamino)-1-phenyl-methylidene]-5-phenylsulphonylamino-2-indolinone]	248 to 249	
O=C(O)Cc1ccc(N/C(=C2\C(=O)Nc3ccc(NS(=O)(=O)c4ccccc4)cc32)c2ccccc2)cc1 [Example 153, (Z)-3-[1-(4-carboxymethyl-phenylamino)-1-phenyl-methylidene]-5-phenylsulphonylamino-2-indolinone]	305 to 306	
O=C(Cc1ccc(N/C(=C2\C(=O)Nc3ccc(NS(=O)(=O)c4ccccc4)cc32)c2ccccc2)cc1)NCc1ccccc1 [Example 154, (Z)-3-{1-[4-(benzylaminocarbonylmethyl)-phenylamino]-1-phenyl-methylidene}-5-phenylsulphonylamino-2-indolinone]	219 to 220	
CS(=O)(=O)N(CC(N)=O)c1ccc(N/C(=C2\C(=O)Nc3ccc(NS(=O)(=O)c4ccccc4)cc32)c2ccccc2)cc1 [Example 155, (Z)-3-{1-[4-(N-(aminocarbonylmethyl)-N-methylsulphonyl-amino)-phenylamino]-1-phenyl-methylidene}-5-phenylsulphonylamino-2-indolinone]	216 to 217	
O=C1Nc2ccc(NS(=O)(=O)c3ccccc3)cc2/C1=C(/Nc1ccc(C(=O)NCc2ccccc2)cc1)c1ccccc1 [Example 158, (Z)-3-{1-[4-(benzylaminocarbonyl)-phenylamino]-1-phenyl-methylidene}-5-phenylsulphonylamino-2-indolinone]		10 to 1000
CC(=O)N(CC(=O)N(C)C)c1ccc(N/C(=C2\C(=O)Nc3ccc(NS(=O)(=O)c4ccccc4)cc32)c2ccccc2)cc1 [Example 164, (Z)-3-{1-[4-(N-dimethylaminocarbonylmethyl-N-acetyl-amino)-phenylamino]-1-phenyl-methylidene}-5-phenylsulphonylamino-2-indolinone]		10 to 1000
CN(C)CCN(c1ccc(N/C(=C2\C(=O)Nc3ccc(N(C)S(=O)(=O)c4ccccc4)cc32)c2ccccc2)cc1)S(C)(=O)=O [Example 207, (Z)-3-{1-[4-(N-(2-dimethylamino-ethyl)-N-methylsulphonyl-amino)-phenylamino)-1-phenyl-methylidene}-5-(N-methyl-N-phenylsulphonyl-amino)-2-indolinone]		10 to 1000
CC(=O)N(CCN(C)C)c1ccc(N/C(=C2\C(=O)Nc3ccc(N(C)S(=O)(=O)c4ccccc4)cc32)c2ccccc2)cc1 [Example 208, (Z)-3-{1-[4-(N-(2-dimethylamino-ethyl)-N-acetyl-amino)-phenylamino)-1-phenyl-methylidene}-5-(N-methyl-N-phenylsulphonyl-amino)-2-indolinone]	217	
CN(C(=O)CN1CCCCC1)c1ccc(N/C(=C2\C(=O)Nc3ccc(N(C)S(=O)(=O)c4ccccc4)cc32)c2ccccc2)cc1 [Example 209, (Z)-3-{1-[4-(N-methyl-N-piperidinomethylcarbonyl-amino)-phenylamino)-1-phenyl-methylidene}-5-(N-methyl-N-phenylsulphonyl-amino)-2-indolinone]	160	
CN(C)Cc1cccc(N/C(=C2\C(=O)Nc3ccc(N(C)S(=O)(=O)c4ccccc4)cc32)c2ccccc2)c1 [Example 210, (Z)-3-[1-(3-dimethylaminomethyl-phenylamino)-1-phenyl-methylidene]-5-(N-methyl-N-phenylsulphonyl-amino)-2-indolinone]	226	
